Patent US5849745A, “N-benzylpiperazine compounds” (ADIR et Compagnie, priority 1996, dated 1998)
Structures can show the parent of a compound that is named as a salt.

Experiments:
[1] = system: blood/brain barrier model (monolayer of cerebral capillary endothelial cells cocultured with astrocytes); assay: Ability to cross the blood/brain barrier, endothelial cell/astrocyte coculture model; format: in vitro ADME; conditions: concluded from the coefficient of permeability
Description: (§1) In order to study the functions of cerebral capillaries "in vitro", we developed a coculture model which allows the "in vivo" situation to be recreated. The endothelial cells of capillaries and astrocytes are cultured on either side of a filter.
(§2) The endothelial cells are cultured in the upper compartment on the filter and the astrocytes in the lower compartment on the bottom of the Petri dish.
(§3) On the day of the experiment, a solution of Ringer-HEPES (150 mM NaCl; 5.2 mM KCl; 2.2 mM CaCl2; 0.2 mM MgCl2 ·6H2 O; 6 mM NaHCO3; 5 mM HEPES; 2.8 mM glucose) is placed in the lower compartment of a 6-well dish (3 ml per well). A filter of covered with a monolayer of endothelial cells is transferred into the first well of the 6-well dish. 2 ml of the Ringer-HEPES solution containing the test compound are placed in the upper compartment of the filter. […] The experiments are performed in triplicate with filters covered with a monolayer of endothelial cells from cerebral capillaries or of collagen alone as control. They are agitated at 37° C. throughout the experiment.
(§4) In the graph clearance=f(t), measurement of the slope gives the value "PSt" where PS=permeability×surface area of the monolayer (in μl/min) for the filters covered with cerebral capillary endothelial cells. "PSf" is calculated in the same way for the control filters. The permeability for the monolayer of endothelial cells alone (PSe) is given by: [formula]
(§5) The coefficient of endothelial permeability "Pe" is calculated by dividing "PSe" by the surface area of the monolayer of endothelial cells. "Pe" is expressed in "cm/min".

[2] = as above; format: in vitro ADME; conditions: in vitro coculture model, 37° C.; read-out: coefficient of permeability of the blood/brain barrier (Pe) (converted)
Description: as §1, §2, §3, §4, §5

[3] = system: mitochondrial ATP synthesis (isolated rat liver mitochondria); assay: Mitochondrial energy (ATP) production during experimental calcium overload (cyclosporin A), isolated rat liver mitochondria; format: biochemical; conditions: 1×10^-6 M
Description: Briefly, the mitochondria are extracted from rat livers. Mitochondrial respiration (1.5 mg of proteins placed in a reaction chamber) is brought about by the addition of sodium succinate, which is used as substrate (at 6×10^-4 M) and oxidative phosphorylation is triggered by the addition of ADP to the survival medium up to a final concentration of 1×10^-5 M. By recording the rates of oxygen consumption (in nmol/min./mg of mitochondrial protein) it is possible to calculate the characteristic parameters of the mitochondrial energy synthesis in the form of ATP.

[4] = system: isolated rat heart (myocardium); assay: Ischemia-reperfusion sequence on isolated rat heart (contractile function and myocytic energetic metabolic response, 31P NMR); conditions: 5×10^-6 M; for intracellular pH at the end of the ischemia: control falls from pH 7.2 to pH 6.0
Description: Study of the compounds of the invention on the contractile function of the myocardium and on the myocytic energetic metabolic response in the course of an ischemia-reinfusion sequence (isolated rat heart).
This study was carried out by means of the use of ^31 P NMR spectroscopy, this technique allowing the monitoring, on an isolated and infused heart, of the variation in the contents of phosphorylated compounds (ATP, phosphocreatine, inorganic phosphate) and in the intracellular pH. It allows continuous investigation of a number of variables linked with the energetic state of the myocardium and allows a comparative evaluation of the antiischemic properties of several products.
The isolated rat heart is infused aortically at a constant pressure (100 cm of water) for 30 min. and is then subjected to a partial global ischemia (coronary output reduced to 1.3% of the initial output) for 24 min., and, lastly, the heart is reinfused at constant pressure for 30 min.
Throughout the experiment, NMR spectra corresponding to 3-minute-long acquisitions are recorded. After statistical exploitation, they serve to determine the intracardial concentration of ATP, of phosphocreatine (PC) and of inorganic phosphate (Pi), as well as to evaluate the intracellular pH.
This procedure is intended to assess the effect of the presence of the product before and during the ischemia. To this end, the product is administered in the infusion medium after normoxic infusion for 20 min; it remains present in the infusion solution throughout the remainder of the experiment. A concentration of 5×10^-6 M was chosen for this comparative study.
This is intended to evaluate the effects of the products on the heart function. The heart is infused under the conditions defined above, and a catheter connected to a pressure sensor is introduced into the left ventrical (via the atrium) in order to monitor the pressure changes developed by the LV. The heart rate and the heart output are also monitored.
This is carried out in a superconducting magnet of 5.9 T in order to record the ^31 P NMR spectra. This series of experiments is intended to evaluate the impact of the product on the energetic equilibrium of the myocardium both in normoxia, in ischemia and in reinfusion.

| penetration into the brain (in words) [1] | Papp [2] [×10⁻⁶ cm/s] | Compound | restoration of mitochondrial ATP synthesis [3] [%] | cytoprotective effect during an ischemia-reinfusion sequence of the myocardium, compared with trimetazidine [4] | effect on the intracellular acidosis induced by the ischemia [4] | intracellular pH at the end of the ischemia [4] |
| --- | --- | --- | --- | --- | --- | --- |
| penetrate the brain very easily | > 16.7 | CCN1CCN(Cc2ccc(OC)c(OC)c2OC(=O)[C@@H]2C[C@H]2c2ccccc2)CC1 (relative stereo) [Example 1, N-(3,4-Dimethoxy-2-E-phenylcyclopropylcarbonyloxy)benzyl-N'-ethylpiperazinedihydrochloride] | 100 | greatly increased | particularly pronounced | 6.5 |
| penetrate the brain very easily | > 16.7 | COc1ccc(CN2CCN(Cc3ccccc3)CC2)c(OC(=O)[C@@H]2C[C@H]2c2ccccc2)c1OC (relative stereo) [Example 2, N-(3,4-Dimethoxy-2-E-phenylcyclopropylcarbonyloxy)benzyl-N'-benzylpiperazine dihydrochloride] | – | – | – | – |
| penetrate the brain very easily | > 16.7 | CCN1CCN(Cc2ccc(OC)c(OC)c2OC(=O)[C@@H]2C[C@H]2c2ccccc2)CC1 [Example 17, N-(3,4-Dimethoxy-2-E-(R,R)-phenylcyclopropylcarbonyloxy)benzyl-N'-ethylpiperazine dihydrochloride] | – | – | – | – |
| penetrate the brain very easily | > 16.7 | CCN1CCN(Cc2ccc(OC)c(OC)c2OC(=O)[C@H]2C[C@@H]2c2ccccc2)CC1 [Example 19, N-(3,4-Dimethoxy-2-E-(S,S)-phenylcyclopropylcarbonyloxy)benzyl-N'-ethylpiperazine dihydrochloride] | – | – | – | – |

| Compound | penetration into the brain (in words) [1] | Papp [2] [×10⁻⁶ cm/s] | restoration of mitochondrial ATP synthesis [3] [%] | cytoprotective effect during an ischemia-reinfusion sequence of the myocardium, compared with trimetazidine [4] | effect on the intracellular acidosis induced by the ischemia [4] | intracellular pH at the end of the ischemia [4] |
| --- | --- | --- | --- | --- | --- | --- |
| COc1ccc(CN2CCNCC2)c(OC)c1OC [trimetazidine, 2,3,4-trimethoxybenzylpiperazine, reference compound] | penetrates poorly into the brain | 7 | – | – | – | 6.35 |
